Where two headings read alike, the source gives them in different places.
What was measured:
mouse 11b-HSD1 = target: T1, mouse 11b-HSD1 (Mus musculus, UniProt P50172); assay: cell-based assay, stable CHO cell line expressing mouse 11b-HSD1, cortisol measured with DiscoverX HitHunter Cortisol Assay; details: CHO cells expressing mouse 11b-HSD1, 500 nM cortisone, 120 minutes
T1 construct: expressed in transfected cells
Method: To determine the potency of compounds against mouse 11b-HSD1, a stable CHO cell line expressing mouse 11b-HSD1 is used. Cells are plated at 20,000 cells/well in 96 well plates and incubated overnight (12-16 hrs) at 37° C./5% CO2. […] 10 ul of 5 micromolar cortisone (final concentration 500 nM) is then added to the cells and the plate is incubated at 37° C./5% CO2 for 120 minutes. 15 microliter of media is withdrawn and amount of cortisol in the media is measured using the DiscoverX HitHunter Cortisol Assay (DiscoverX corp, CA).

human 11b-HSD1 = target: T2, human 11b-HSD1 (Homo sapiens, UniProt P28845); assay: cell-based assay, stable CHO cell line expressing human 11b-HSD1, cortisol measured with DiscoverX HitHunter Cortisol Assay; details: CHO cells expressing human 11b-HSD1; serum-free media; 500 nM cortisone, 120 minutes; read-out: Human 1C50
T2 construct: expressed in transfected cells
Method: Compounds described herein can be tested in a cell-based assay using a stable CHO cell line expressing human 11b-HSD1. Cells are plated at 20,000 cells/well in 96 well plates and incubated overnight (12-16 hrs) at 37° C./5% CO2. Cells are treated with different concentration of compound in 90 microliter serum-free media and incubated for 30 minutes at 37° C./5% CO2. 10 ul of 5 micromolar cortisone (final concentration 500 nM) is then added to the cells and the plate is incubated at 37° C./5% CO2 for 120 minutes. 15 microliter of media is withdrawn and amount of cortisol in the media is measured using the DiscoverX HitHunter Cortisol Assay (DiscoverX corp, CA).

[1] = media containing 10% delipidized human serum, read-out: Mouse + Serum 1C50
[2] = serum-free media, read-out: Mouse 1C50

T2 sequence (P28845 whole entry): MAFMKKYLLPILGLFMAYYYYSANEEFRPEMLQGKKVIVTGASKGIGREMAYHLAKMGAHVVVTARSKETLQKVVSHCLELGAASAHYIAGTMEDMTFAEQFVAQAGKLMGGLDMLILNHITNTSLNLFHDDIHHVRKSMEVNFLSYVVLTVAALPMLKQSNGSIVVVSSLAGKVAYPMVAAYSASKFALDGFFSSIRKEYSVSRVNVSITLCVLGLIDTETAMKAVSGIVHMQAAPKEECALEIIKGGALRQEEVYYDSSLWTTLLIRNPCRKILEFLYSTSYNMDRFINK
T1 sequence (P50172 whole entry): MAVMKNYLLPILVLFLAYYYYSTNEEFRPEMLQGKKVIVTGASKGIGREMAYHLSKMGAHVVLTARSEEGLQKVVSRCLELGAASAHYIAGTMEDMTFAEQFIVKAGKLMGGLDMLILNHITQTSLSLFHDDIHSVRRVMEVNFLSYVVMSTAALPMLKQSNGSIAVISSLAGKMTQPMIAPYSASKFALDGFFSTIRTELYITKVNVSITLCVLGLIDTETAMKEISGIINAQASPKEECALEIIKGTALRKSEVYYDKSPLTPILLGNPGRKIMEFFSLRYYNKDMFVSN

SMILES | IC50 (mouse 11b-HSD1; [1]) | IC50 (mouse 11b-HSD1; [2]) | IC50 (human 11b-HSD1)
NC(c1cccc(S(=O)(=O)N2CCCCC2)c1)(C(F)(F)F)C(F)(F)F [Example 1, 2,2,2-Trifluoro-1-[3-(piperidine-1-sulfonyl)-phenyl]-1-trifluoromethyl-ethylamine] | 3320 nM | > 10000 nM | > 10000 nM
NC(c1ccc(S(=O)(=O)N2CCCCC2)cc1)(C(F)(F)F)C(F)(F)F [Example 2, 2,2,2-Trifluoro-1-[4-(piperidine-1-sulfonyl)-phenyl]-1-trifluoromethyl-ethylamine] | 731 nM | 613 nM | 428 nM
NC(c1cccc(S(=O)(=O)N2CCCC2)c1)(C(F)(F)F)C(F)(F)F [Example 3, 2,2,2-Trifluoro-1-[3-(pyrrolidine-1-sulfonyl)-phenyl]-1-trifluoromethyl-ethylamine] | > 10000 nM | > 10000 nM | > 10000 nM
CCN(CC)S(=O)(=O)c1cccc(C(N)(C(F)(F)F)C(F)(F)F)c1 [Example 4, 3-(1-Amino-2,2,2-trifluoro-1-trifluoromethyl-ethyl)-N,N-diethyl-benzenesulfonamide] | > 10000 nM | > 10000 nM | > 10000 nM
CC(C)(C)OC(=O)N(C1CCCCC1)S(=O)(=O)c1cccc(C(N)(C(F)(F)F)C(F)(F)F)c1 [Example 5, 3-(1-Amino-2,2,2-trifluoro-1-trifluoromethyl-ethyl)-N-(tert-butoxycarbonyl)-N-cyclohexyl-benzenesulfonamide] | > 10000 nM | > 10000 nM | > 10000 nM
CC(C)(C)OC(=O)N(Cc1ccccc1)S(=O)(=O)c1cccc(C(N)(C(F)(F)F)C(F)(F)F)c1 [Example 6, 3-(1-Amino-2,2,2-trifluoro-1-trifluoromethyl-ethyl)-N-benzyl-N-(tert-butoxycarbonyl)-benzenesulfonamide] | > 10000 nM | > 10000 nM | > 10000 nM
NC(c1cccc(C(=O)N2CCCCC2)c1)(C(F)(F)F)C(F)(F)F [Example 7, [3-(1-Amino-2,2,2-trifluoro-1-trifluoromethyl-ethyl)-phenyl]-piperidin-1-yl-methanone] | 2690 nM | > 10000 nM | 2380 nM
COc1ccc(N(C(=O)OC(C)(C)C)S(=O)(=O)c2cccc(C(N)(C(F)(F)F)C(F)(F)F)c2)cc1 [Example 8, 3-(1-Amino-2,2,2-trifluoro-1-trifluoromethyl-ethyl)-N-(tert-butoxycarbonyl)-N-(4-methoxy-phenyl)-benzenesulfonamide] | > 10000 nM | > 10000 nM | > 10000 nM
NC(c1ccc(C(=O)N2CCCCC2)cc1)(C(F)(F)F)C(F)(F)F [Example 9, [4-(1-Amino-2,2,2-trifluoro-1-trifluoromethyl-ethyl)-phenyl]-piperidin-1-yl-methanone] | 8380 nM | > 10000 nM | > 10000 nM
COc1ccc(N(C(=O)OC(C)(C)C)S(=O)(=O)c2ccc(C(N)(C(F)(F)F)C(F)(F)F)cc2)cc1 [Example 10, 4-(1-Amino-2,2,2-trifluoro-1-trifluoromethyl-ethyl)-N-(tert-butoxycarbonyl)-N-(4-methoxy-phenyl)-benzenesulfonamide] | > 10000 nM | > 10000 nM | > 10000 nM
CCN(CC)C(=O)c1cccc(C(N)(C(F)(F)F)C(F)(F)F)c1 [Example 11, 3-(1-Amino-2,2,2-trifluoro-1-trifluoromethyl-ethyl)-N,N-diethyl-benzamide] | 291 nM |  | 
CCN(CC)C(=O)c1ccc(C(N)(C(F)(F)F)C(F)(F)F)cc1 [Example 12, 4-(1-Amino-2,2,2-trifluoro-1-trifluoromethyl-ethyl)-N,N-diethyl-benzamide] | 165 nM |  | 
CCN(CC)S(=O)(=O)c1ccc(C(N)(C(F)(F)F)C(F)(F)F)cc1 [Example 13, 4-(1-Amino-2,2,2-trifluoro-1-trifluoromethyl-ethyl)-N,N-diethyl-benzenesulfonamide] | 645 nM | 225 nM | 565 nM
C[C@@H]1CN(c2ccc(C(N)(C(F)(F)F)C(F)(F)F)nc2)CCN1S(=O)(=O)c1cccc(C(C)(O)C(F)(F)F)c1 (stereo partly drawn) [Example 14, 2-(3-{[(2R)-4-{6-[1-amino-2,2,2-trifluoro-1-(trifluoromethyl)ethyl]pyridin-3-yl}-2-methylpiperazin-1-yl]sulfonyl}phenyl)-1,1,1-trifluoropropan-2-ol] |  | 160 nM | < 10 nM
C[C@@H]1CN(c2ccc(C(N)(C(F)(F)F)C(F)(F)F)cc2C(F)(F)F)CCN1S(=O)(=O)c1cccc(C(C)(O)C(F)(F)F)c1 (stereo partly drawn) [Example 15, 2-(3-{[(2R)-4-{4-[1-amino-2,2,2-trifluoro-1-(trifluoromethyl)ethyl]-2-(trifluoromethyl)phenyl}-2-methylpiperazin-1-yl]sulfonyl}phenyl)-1,1,1-trifluoropropan-2-ol] |  | 200 nM | 80 nM
C[C@@H]1CN(c2ccc(C(N)(C(F)(F)F)C(F)(F)F)cc2C(F)(F)F)CCN1S(=O)(=O)c1ccc(C(C)(O)C(F)(F)F)cc1 (stereo partly drawn) [Example 16, 2-{4-([(2R)-4-[4-[1-amino-2,2,2-trifluoro-1-(trifluoromethyl)ethyl]-2-(trifluoromethyl)phenyl]-2-methylpiperazin-1-yl}sulfonyl)phenyl]-1,1,1-trifluoropropan-2-ol] |  | < 100 nM | 90 nM

Source: patent US20080188659A1, “Method for Preparing Halogenated Amines” (Wyeth, priority 2007, published 2008)
